Source: the supplement of paper PMC4862054

Key:
Conditions in all cases: incubation time: 72 h
[1] = test system: MDA-MB-231; test: drug sensitivity score (DSS), CellTiter-Glo (DSS (AUC-based score)); higher = stronger drug effect (viability inhibition or cytotoxicity); extreme values may be limits of the assay
In short: (§1)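 In 384-well plates, compound was laid out at 5 concentrations in 10-fold steps over a 10,000-fold range specific to each compound, and breast cancer cell lines were seeded on top in 20 µl suspension for a 72 h incubation. CellTox Green fluorescence and then CellTiter-Glo luminescence were read, and each plate was normalised to 0.1 % DMSO and a positive kill control. The drug sensitivity score was calculated from the area under the fitted dose-response curve.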

[2] = test system: CAL-85-1; test: as above
In short: as §1

[3] = test system: HCC1937; test: as above
In short: as §1

[4] = test system: HCC1599; test: as above
In short: as §1

[5] = test system: CAL-148; test: as above
In short: as §1

[6] = test system: MCF-10A; test: as above
In short: as §1

[7] = test system: Hs578T; test: as above
In short: as §1

[8] = test system: MDA-MB-468; test: as above
In short: as §1

[9] = test system: MDA-MB-436; test: as above
In short: as §1

[10] = test system: MDA-MB-453; test: as above
In short: as §1

[11] = test system: HCC1143; test: as above
In short: as §1

[12] = test system: CAL-120; test: as above
In short: as §1

[13] = test system: BT-474; test: as above
In short: as §1

[14] = test system: HDQ-P1; test: as above
In short: as §1

[15] = test system: CAL-51; test: as above
In short: as §1

[16] = test system: MFM-223; test: as above
In short: as §1

[17] = test system: SK-BR-3; test: as above
In short: as §1

[18] = test system: DU-4475; test: as above
In short: as §1

[19] = test system: BT-549; test: as above
In short: as §1

[20] = test system: CAL-85-1; test: normalised viability (% of control), CellTiter-Blue; higher = more viable cells (about 100 = DMSO control)
Description: (§2)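 DSRT, CellTiter-Blue viability, 72 h incubation. Signal is normalised to DMSO and benzethonium chloride controls. Value is the normalised response at dose 3.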

[21] = test system: Hs578T; test: as above
Description: as §2

[22] = test system: MDA-MB-468; test: as above
Description: as §2

[23] = test system: MDA-MB-453; test: as above
Description: as §2

[24] = test system: CAL-120; test: as above
Description: as §2

[25] = test system: BT-474; test: as above
Description: as §2

[26] = test system: HDQ-P1; test: as above
Description: as §2

[27] = test system: SK-BR-3; test: as above
Description: as §2

SMILES | drug sensitivity score [1] | drug sensitivity score [2] | drug sensitivity score [3] | drug sensitivity score [4] | drug sensitivity score [5] | drug sensitivity score [6] | drug sensitivity score [7] | drug sensitivity score [8] | drug sensitivity score [9] | drug sensitivity score [10] | drug sensitivity score [11] | drug sensitivity score [12] | drug sensitivity score [13] | drug sensitivity score [14] | drug sensitivity score [15] | drug sensitivity score [16] | drug sensitivity score [17] | drug sensitivity score [18] | drug sensitivity score [19] | normalised viability ([20]; 10 nM) [%] | other results
C#Cc1cccc(Nc2ncnc3cc(OC)c(OCCCCCCC(=O)NO)cc23)c1 [CUDC-101] | 13.1 | 19.7 | 8.33 | 11.4 | 10.1 | 17.5 | 8.01 | 18.1 | 6.33 | 21.1 | 11.1 | 5.5 | 7.85 | 7.15 | 12.7 | 15 | 14.6 | 9.19 | 9 | 93 | normalised viability ([21]; 100 nM): 70.2%; normalised viability ([22]; 100 nM): 66.2%; normalised viability ([23]; 10 nM): 87.4%; normalised viability ([24]; 100 nM): 67.1%; normalised viability ([25]; 100 nM): 89.2%; normalised viability ([26]; 10 nM): 86.3%; normalised viability ([27]; 100 nM): 58.9%
COc1cccc2c1C(=O)c1c(O)c3c(c(O)c1C2=O)C[C@@](O)(C(C)=O)C[C@@H]3O[C@H]1C[C@H](N)[C@H](O)[C@H](C)O1 [Daunorubicin] | 6.97 | 4.68 | 2.19 | 2.8 | 10 | 2.11 | 4.81 | 10.7 | 6.85 | 3.7 | 3.23 | 4.35 | 7.33 | 3.57 | 12 | 1.59 | 6.15 | 7.7 | 9.34 |  | normalised viability ([20]; 1 nM): 102%; normalised viability ([21]; 10 nM): 85.9%; normalised viability ([22]; 10 nM): 99.8%; normalised viability ([23]; 1 nM): 103%; normalised viability ([24]; 10 nM): 79%; normalised viability ([25]; 10 nM): 115%; normalised viability ([26]; 1 nM): 153%; normalised viability ([27]; 10 nM): 87.3%
CN1CCN(c2ccc3nc(-c4c(N)c5c(F)cccc5[nH]c4=O)[nH]c3c2)CC1 [Dovitinib] | 0 | 0 | 0 | 0 | 0 | 0 | 0 | 0 | 0 | 0 | 0 | 0.000114 | 0 | 0 | 0 | 0 | 0 | 0 | 0 | 89.2 | normalised viability ([21]; 100 nM): 87%; normalised viability ([22]; 100 nM): 86.9%; normalised viability ([23]; 10 nM): 87.7%; normalised viability ([24]; 100 nM): 86.4%; normalised viability ([25]; 100 nM): 115%; normalised viability ([26]; 10 nM): 95.7%; normalised viability ([27]; 100 nM): 101%
O=c1[nH]c(=O)n([C@H]2C[C@H](O)[C@@H](CO)O2)cc1F [Floxuridine] | 4.12 | 17.5 | 10.3 | 9.95 | 0 | 0 | 24.7 | 6.72 | 9.72 | 0 | 0 | 11.1 | 5.99 | 2.32 | 17.3 | 0 | 12 | 1.58 | 1.93 | 93.1 | normalised viability ([21]; 100 nM): 85.8%; normalised viability ([22]; 100 nM): 51.9%; normalised viability ([23]; 10 nM): 98.5%; normalised viability ([24]; 100 nM): 66.2%; normalised viability ([25]; 100 nM): 117%; normalised viability ([26]; 10 nM): 107%; normalised viability ([27]; 100 nM): 53%
O=c1[nH]cc(F)c(=O)[nH]1 [Fluorouracil] | 0 | 8.63 | 0 | 0 | 0 | 0 | 0 | 0 | 3.61 | 0 | 0 | 0 | 0 | 0 | 0 | 0 | 1.79 | 0 | 0 | 94.7 | normalised viability ([21]; 100 nM): 115%; normalised viability ([22]; 100 nM): 104%; normalised viability ([23]; 10 nM): 116%; normalised viability ([24]; 100 nM): 111%; normalised viability ([25]; 100 nM): 116%; normalised viability ([26]; 10 nM): 103%; normalised viability ([27]; 100 nM): 87%
C[C@@H]1C=C2C(=O)O[C@@H]3CC[C@H](C1)[C@]23O [Galiellalactone] | 0 | 1.79 | 0 | 0 | 0 | 0 | 0 | 6.03 | 0 | 0 | 0 | 0 | 0 | 0 | 4.43 | 0 | 0 | 0 | 2.89 |  | normalised viability ([20]; 50 nM): 97.4%; normalised viability ([21]; 500 nM): 101%; normalised viability ([22]; 500 nM): 105%; normalised viability ([23]; 50 nM): 110%; normalised viability ([24]; 500 nM): 85.6%; normalised viability ([25]; 500 nM): 136%; normalised viability ([26]; 50 nM): 113%; normalised viability ([27]; 500 nM): 96.4%
